Source: the NIST ThermoML archive (doi:10.1021/je200903m)
± gives the expanded uncertainty stated by the source.

Details: Liquid, isochoric method

CCCCn1cc[n+](C)c1.O=S(=O)([O-])C(F)(F)F [1-butyl-3-methylimidazolium trifluoromethanesulfonate]
Details	mass density [kg/m3]
290.5 K, 40403 kPa	1326.13 ± 1.5
290.51 K, 20585 kPa	1315.76 ± 1.4
290.53 K, 10565 kPa	1310.84 ± 1.4
290.69 K, 30827 kPa	1321.18 ± 1.4
291.26 K, 1592.1 kPa	1304.62 ± 1.4
298.15 K, 9757.7 kPa	1303.63 ± 1.4
298.15 K, 19969 kPa	1309.73 ± 1.4
298.15 K, 20141 kPa	1309.72 ± 1.4
298.15 K, 30285 kPa	1314.63 ± 1.4
298.15 K, 50367 kPa	1324.98 ± 1.4
298.16 K, 9701.7 kPa	1303.63 ± 1.4
298.16 K, 19936 kPa	1309.73 ± 1.4
298.16 K, 30053 kPa	1314.64 ± 1.4
298.16 K, 40303 kPa	1320.08 ± 1.4
298.16 K, 40410 kPa	1320.08 ± 1.4
298.17 K, 10081 kPa	1303.62 ± 1.4
298.17 K, 10432 kPa	1304.22 ± 1.4
298.17 K, 50464 kPa	1324.97 ± 1.4
299.03 K, 2480.8 kPa	1298.81 ± 1.4
305.41 K, 59674 kPa	1323.93 ± 1.4
305.45 K, 10034 kPa	1297.93 ± 1.4
305.45 K, 19292 kPa	1303.2 ± 1.4
305.9 K, 39945 kPa	1313.54 ± 1.4
306 K, 29921 kPa	1308.61 ± 1.4
306 K, 50404 kPa	1318.95 ± 1.4
306.05 K, 19559 kPa	1302.52 ± 1.4
307.17 K, 1752 kPa	1291.55 ± 1.4
313.41 K, 59599 kPa	1317.95 ± 1.4
313.93 K, 49845 kPa	1312.46 ± 1.4
314.21 K, 9839.1 kPa	1290.64 ± 1.4
314.21 K, 20109 kPa	1296.78 ± 1.4
314.21 K, 39744 kPa	1307.53 ± 1.4
314.32 K, 29477 kPa	1301.43 ± 1.4
314.85 K, 831 kPa	1284.6 ± 1.4
321.66 K, 59111 kPa	1311.47 ± 1.4
321.82 K, 29288 kPa	1295.81 ± 1.4
323.07 K, 39773 kPa	1300.33 ± 1.4
323.16 K, 50452 kPa	1306.39 ± 1.4
323.18 K, 10082 kPa	1283.58 ± 1.4
323.2 K, 20072 kPa	1289.53 ± 1.4
323.4 K, 1581.8 kPa	1277.54 ± 1.4
330.39 K, 28233 kPa	1288.68 ± 1.4
330.5 K, 39240 kPa	1294.79 ± 1.4
331.3 K, 241.1 kPa	1270.51 ± 1.4
331.38 K, 10182 kPa	1276.63 ± 1.4
331.38 K, 19050 kPa	1282.64 ± 1.4
331.38 K, 59986 kPa	1305.41 ± 1.4
331.78 K, 49813 kPa	1299.3 ± 1.4
339.84 K, 49769 kPa	1293.74 ± 1.4
340.71 K, 39738 kPa	1287.53 ± 1.4
340.73 K, 10118 kPa	1269.5 ± 1.4
340.75 K, 20227 kPa	1275.61 ± 1.4
340.93 K, 60046 kPa	1298.28 ± 1.4
341.39 K, 30102 kPa	1281.54 ± 1.4
341.68 K, 1330.2 kPa	1262.9 ± 1.4
347.88 K, 58421 kPa	1292.89 ± 1.4
350.01 K, 30185 kPa	1274.67 ± 1.4
350.14 K, 9957.7 kPa	1262.06 ± 1.4
350.15 K, 19909 kPa	1268.55 ± 1.4
350.31 K, 39671 kPa	1280.63 ± 1.4
350.38 K, 50208 kPa	1286.54 ± 1.4

CCn1cc[n+](C)c1.F[B-](F)(F)F [1-ethyl-3-methylimidazolium tetrafluoroborate]
Details	mass density [kg/m3]
284.73 K, 40082 kPa	1309.71 ± 1.3
284.74 K, 29331 kPa	1305.75 ± 1.3
285.12 K, 9993.5 kPa	1296.4 ± 1.3
285.2 K, 19389 kPa	1300.88 ± 1.3
285.8 K, 1326.9 kPa	1292.98 ± 1.3
290.95 K, 50018 kPa	1309.1 ± 1.3
291.3 K, 39987 kPa	1305.11 ± 1.3
291.58 K, 20094 kPa	1295.79 ± 1.3
291.59 K, 10267 kPa	1292.43 ± 1.3
292 K, 30197 kPa	1300.22 ± 1.3
292.03 K, 1055.4 kPa	1288.31 ± 1.3
298.14 K, 10219 kPa	1287.74 ± 1.3
298.14 K, 19834 kPa	1291.82 ± 1.3
298.15 K, 20203 kPa	1291.81 ± 1.3
298.15 K, 29284 kPa	1295.18 ± 1.3
298.15 K, 39774 kPa	1299.63 ± 1.3
298.15 K, 39935 kPa	1299.63 ± 1.3
298.15 K, 50710 kPa	1304.44 ± 1.3
298.15 K, 61191 kPa	1308.4 ± 1.3
298.16 K, 30299 kPa	1295.16 ± 1.3
298.63 K, 1139.7 kPa	1283.3 ± 1.3
304.09 K, 59595 kPa	1303.87 ± 1.3
304.39 K, 39527 kPa	1294.57 ± 1.3
304.61 K, 49734 kPa	1299.01 ± 1.3
304.62 K, 29983 kPa	1291.2 ± 1.3
304.69 K, 10037 kPa	1282.74 ± 1.3
304.69 K, 19721 kPa	1287.13 ± 1.3
305.23 K, 1194.1 kPa	1278.54 ± 1.3
311.4 K, 39938 kPa	1290.56 ± 1.3
311.49 K, 30054 kPa	1286.49 ± 1.3
311.51 K, 60021 kPa	1298.35 ± 1.3
311.55 K, 19542 kPa	1282.12 ± 1.3
311.56 K, 10293 kPa	1277.95 ± 1.3
311.72 K, 50382 kPa	1293.87 ± 1.3
312.05 K, 1111.5 kPa	1273.28 ± 1.3
318.36 K, 19918 kPa	1277.33 ± 1.3
318.37 K, 9976 kPa	1272.71 ± 1.3
318.37 K, 50094 kPa	1289.9 ± 1.3
318.4 K, 39958 kPa	1285.84 ± 1.3
318.49 K, 30004 kPa	1281.46 ± 1.3
318.57 K, 60242 kPa	1293.23 ± 1.3
319.24 K, 1155.6 kPa	1268 ± 1.3
325.39 K, 60094 kPa	1289.24 ± 1.3
325.5 K, 50050 kPa	1285.18 ± 1.3
325.59 K, 30106 kPa	1276.66 ± 1.3
325.59 K, 39966 kPa	1280.8 ± 1.3
325.65 K, 9902.1 kPa	1267.42 ± 1.3
325.66 K, 18720 kPa	1272.06 ± 1.3
326.26 K, 1166.5 kPa	1262.28 ± 1.3
332.57 K, 59788 kPa	1284.52 ± 1.3
332.79 K, 39915 kPa	1275.99 ± 1.3
332.85 K, 50074 kPa	1280.13 ± 1.3
332.87 K, 29859 kPa	1271.38 ± 1.3
332.99 K, 10159 kPa	1261.67 ± 1.3
333.07 K, 19960 kPa	1266.75 ± 1.3
333.62 K, 1252.9 kPa	1257.28 ± 1.3
340.28 K, 59745 kPa	1279.45 ± 1.3
340.35 K, 9969.2 kPa	1256.69 ± 1.3
340.37 K, 19698 kPa	1261.02 ± 1.3
340.39 K, 50227 kPa	1275.3 ± 1.3
340.42 K, 39835 kPa	1270.69 ± 1.3
340.55 K, 29899 kPa	1266.08 ± 1.3
341.04 K, 1357.1 kPa	1251.73 ± 1.3
347.77 K, 59854 kPa	1274.63 ± 1.3
347.97 K, 10024 kPa	1251.12 ± 1.3
348.02 K, 29830 kPa	1260.33 ± 1.3
348.04 K, 19820 kPa	1256 ± 1.3
348.15 K, 49790 kPa	1269.99 ± 1.3
348.24 K, 39938 kPa	1265.38 ± 1.3
355.85 K, 20035 kPa	1250.42 ± 1.3
355.86 K, 29675 kPa	1255.31 ± 1.3
356.01 K, 40147 kPa	1259.61 ± 1.3
356.02 K, 49918 kPa	1264.68 ± 1.3
356.4 K, 59860 kPa	1269.25 ± 1.3
